Values joined by “and” are separate entries in the source; they are usually repeats but may differ in a detail not shown here. Identical values can stand only once.
System: patients with treatment-resistant OCD
Test: Ondansetron augmentation of SRI plus antipsychotic therapy, single-blind 12-week study (YBOCS, CGI, MADRS)
Type: in vivo, human
Excerpt: Between March 2008 and November 2008, fourteen adults aged 18 to 55 were enrolled in a study at the Institute for Neuroscience, Florence, Italy. […] All diagnoses were established utilizing a structured interview, the Structured Clinical Interview for DSM IV Axis I Disorders (SCID I). (See Spitzer, R. L. et al. ARCH GEN PSYCHIATRY 49(8):624-649) Potential subjects with a history of alcohol or substance abuse, current severe depressive symptoms, bipolar disorder, panic disorder, schizophrenia, other psychiatric conditions, heart disease, arrhythmia, liver problems (including cirrhosis), seizures, glaucoma or serious medical disease were excluded. Patients with hoarding as their only OCD symptom and women of childbearing potential not using a medically acceptable contraceptive method were also excluded. After being fully informed about the study and signing an informed consent approved by the Internal Institutional Review Board, subjects were administered an ondansetron hydrochloride (oral solution) dosage of 0.25 mg twice a day for 6 weeks, followed by 0.5 mg twice a day for 6 weeks for a total observation period of 12 weeks. […] The Y-BOCS, Montgomery-Asberg Depression Rating Scale (MADRS) (see Montgomery, S. A., BR J PSYCHIATRY 1979; 134:382-389) was administered at screening and baseline, and these assessments were repeated at every follow-up visit at 2-week intervals, along with the Clinical Global Impressions-Improvement (CGI-I) rating (see Guy, W. ECDEU Assessment Manual for Psychopharmacology. US Dept Health, Education, and Welfare publication (ADM) 76-338. Rockville, Md.: National Institute of Mental Health; 1976:218-222) and an unpublished Drug Effect scale. The Drug Effect scale asked subjects to rate “How anxious are you now?” on a scale of zero (not at all) to 10 (“the most anxious I have ever been”). Similar rating questions have been “Do you experience appearance or increment in frequency of headaches?”, “Do you experience appearance or increment in frequency of headaches fatigue?” and “Do you experience appearance or increment in frequency of headaches constipation” and so on regarding other common ondansetron side effects (diarrhea, urinary retention, itching, and dizziness). Furthermore, each evening during the first week of study medication, a study psychiatrist called the subject to ask for major or unexpected collateral effects (as chest pain, an unexplained skin rash, or tremors.). […] (See […]. et al., AM J PSYCHIATRY 1997; 154:320-321) Subjects with MADRS scores ≧18 were excluded. Ratings were administered by an investigator who was blind to the treatment condition of the patients. Given the small sample size, mean changes from baseline in rating scales were tested with a non-parametric method based on ranks (Wilcoxon signed rank test), using a two-tailed significance level of p≦0.05. Relationships among rated and demographical variables were tested with Spearman's rank correlation tests, using a two-tailed significance level of p≦0.05. Age, baseline OCD severity, and depressive symptoms were controlled for by stratifying through the Mantel-Haenszel χ2 test. Body mass index (BMI) was adjusted given the differences of ondansetron bioavailability according to BMI.

[1] = End of 6th week, Non responder (n = 5)
[2] = End of 6th week, Responder (n = 9)
[3] = End of 12th week, Non responder (n = 5)
[4] = End of 12th week, Responder (n = 9)
[5] = from baseline, individual patients 1-14

SMILES: Cc1nccn1CC1CCc2c(c3ccccc3n2C)C1=O (centres unmarked) [ondansetron]
- YBOCS Score (6 weeks, individual patients 1-14): 25 (3×) and 28 and 17 (2×) and 16 and 27 and 26 and 24 (3×) and 19 and 21
- average YBOCS score decrease of the whole group (6 weeks, n=14): 16%
- patients reaching YBOCS criteria for treatment response (decrease of ≧25%) (12th week, 9/14): 64.2%
- patients very much improved or much improved (CGI-I 1 or 2) (12th week, of 14): seven
- YBOCS Score (12 weeks, individual patients 1-14): 25 (3×) and 15 (2×) and 14 and 30 and 23 and 22 (2×) and 24 and 18 and 17 and 20
- average YBOCS score decrease of the whole group (12 weeks, n=14): 23%
- patients with greater than 25% improvement in OCD symptoms (12 weeks, n=14): Sixty-four
- CGI (mean) [1]: 4.6
- MADRS (mean) [1]: 8.0
- CGI (mean) [2]: 3.4
- MADRS (mean) [2]: 6.7
- CGI (mean) [3]: 4.8
- MADRS (mean) [3]: 7.6
- YBOCS (mean) [3]: 21.4
- CGI (mean) [4]: 2.3
- MADRS (mean) [4]: 6.8
- YBOCS score decrease (Patient 11 (citalopram 60 mg/day and risperidone 2 mg/day), 12th week): ≥ 35%
- Mean MADRS scores change from baseline (baseline to the end of week 1): did not change significantly
- YBOCS Percent Reduction at 6 weeks [5]: 20.00% (2×) and 15.00% and .00%
- YBOCS Percent Reduction at 12 weeks [5]: 28.57% and 25.00% (2×) and 30.00%
- patients with significant improvement in OCD symptoms (out of 14, within 12 weeks of treatment): 9
- Clinical Global Impressions-Improvement (CGI-I) scores (through week 12): improved concurrent with improvement in the YBOCS scores
- outcome after discontinuation of the ondansetron (two responder patients): experienced worsening
